Data on two compounds can be found in article PMC7070167, “Cell‐permeable high‐affinity tracers for Gq proteins provide structural insights, reveal distinct binding kinetics and identify small molecule inhibitors” (British Journal of Pharmacology, 2020).

The test has as its target T1, human Gα14 (Homo sapiens, UniProt O95837).
T1 construct: expressed in transfected cells; membrane preparations
T1 sequence (O95837 1-355): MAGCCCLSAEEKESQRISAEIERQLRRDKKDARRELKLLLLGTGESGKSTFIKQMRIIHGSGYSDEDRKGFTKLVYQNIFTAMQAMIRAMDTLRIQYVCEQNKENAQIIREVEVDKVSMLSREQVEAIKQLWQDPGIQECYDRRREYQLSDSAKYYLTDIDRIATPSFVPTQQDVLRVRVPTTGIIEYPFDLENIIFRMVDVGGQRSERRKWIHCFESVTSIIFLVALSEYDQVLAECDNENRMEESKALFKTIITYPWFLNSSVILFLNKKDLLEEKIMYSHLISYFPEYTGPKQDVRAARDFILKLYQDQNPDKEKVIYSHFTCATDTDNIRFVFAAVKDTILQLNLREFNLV
Put plainly: Competition binding at membranes of HEK-CRISPR-Cas9-Gαq-KO cells expressing Gα14. Here is the method: cDNAs encoding for the α‐subunits of the human G11, G14, G15 and mouse Gq guanine nucleotide‐binding proteins in a pcDNA3.1(+) vector were obtained from E. Kostenis. CRISPR/Cas9‐Gαq‐knockout (KO) HEK293 cells were from M. Yamaguchi. The protein sequences of the human and mouse Gαq proteins differ only by one amino acid in position 171 (alanine in human and serine in mouse). […]. After 16 hr, 3 ml of DMEM containing 10% FBS, 1% of a penicillin/streptomycin solution (final concentrations: penicillin = 100 U·ml^−1, streptomycin = 0.1 mg·ml^−1), and sodium butyrate (5 mM) was added to the packaging cells. They were kept at 32°C and 5% CO2 for 48 hr, during which the viral vectors containing the receptor sequence were produced and released into the surrounding medium. These were harvested, filtered ([…] filter pore diameter), and added to HEK293 cells that had previously been modified via CRISPR/Cas9 genome editing to lack Gαq expression. Polybrene solution (6 μl, 4 mg·ml^−1 in H2O, filtered) was added. After 2.5 hr, the virus‐containing medium was discarded, and DMEM supplemented with 10% FBS and 1% of a penicillin/streptomycin solution (final concentrations: penicillin = 100 U·ml^−1, streptomycin = 0.1 mg·ml^−1) was given to the cells. These were incubated for 2 days, followed by selection of successfully transfected cells with geneticin resistance by adding G418 (200 μg·ml^−1) to the medium. The cells were cultured in these media at 37°C and 10% CO2 until membrane preparations were generated.
Recombinant HEK cells were cultured to 70% of confluence. The culture medium was discarded, and cells were washed once with approximately 5 ml of PBS. Dishes were stored at −20°C until further use. After defrosting, cells were detached with a rubber scraper after adding 5‐mM Tris–HCl, 2‐mM EDTA, pH 7.4. The collected cell suspension was homogenized using an Ultra‐Turrax® for 1 min at a speed level of 4. The cell suspension was transferred into tubes and centrifuged for 10 min at 1,000 g, 4°C. The pellet (P1) was discarded, and the supernatant was centrifuged for 45 min at 48,400 g, 4°C. The resulting supernatant was discarded, and the pellet (P2) was resuspended in 50‐mM Tris–HCl, pH 7.4, and centrifuged again for 45 min at 48,400 g, 4°C. This step was repeated once again, and the suspension was subsequently homogenized using an Ultra‐Turrax® for 1 min at a speed level of 4 (IKA Laborechnik), transferred into cryovials, and stored at −80°C (for up to several months). […]
The experiments were performed in 50‐mM Tris–HCl buffer, pH 7.4. […] Non‐specific binding was determined in the presence of 5‐μM FR. […] Luma Safe® scintillation cocktail (2.5 ml) was added, and after 6 hr of incubation, the samples were counted for 1 min each, using a liquid scintillation counter (counting efficiency 53%). […]

Where two headings read alike, the source gives them in different places. *1 amine or outer side, *2 acyl side, *3 side chain or, on linkers, in order; H or OH if unused. Where a SMILES comes first, the peptide text is derived from it. Bridges are numbered along the chain shown (N, C = ends). [ ]: non-standard residue; d: D form. The star is where a group is joined. Leu(3R-O(AcLeu(3R-OH))) = CC(=O)N[C@H](C(=O)O[C@H](C(C)C)[C@H](N)C(=O)O)[C@H](O)C(C)C; Leu(3R-OH,Nα-propionyl) = CCC(=O)N[C@H](C(=O)*)[C@H](O)C(C)C; X1 = CC(C)[C@@H](O[*:3])[C@H](N[*:1])C(=O)[*:2]; NMeT = CN[C@H](C(=O)O)[C@@H](C)O; dPhLac = O=C(O)[C@H](O)Cc1ccccc1; NMeA = CN[C@@H](C)C(=O)O; NMeDha = C=C(NC)C(=O)O

`C=C1C(=O)N[C@@H](C)C(=O)N(C)[C@@H](C)C(=O)N[C@@H]([C@H](OC(=O)[C@@H](NC(=O)CC)[C@H](O)C(C)C)C(C)C)C(=O)N(C)[C@@H]([C@@H](C)OC)C(=O)O[C@H](C(C)C)[C@H](NC(C)=O)C(=O)O[C@H](Cc2ccccc2)C(=O)N1C` [FR, FR900359] (Ac-[X1][dPhLac][NMeDha]A[NMeA][X1](Leu(3R-OH,Nα-propionyl))[NMeT](Me); ester 1-C) showed an IC50 of 10 nM. The “Pseudo-Bmax ± SD” value (FR versus [³H]PSB-15900 (5 nM), 37°C, G14) amounted to 4.37 ± 0.71 pmol/mg.

With `C=C1C(=O)N[C@@H](C)C(=O)N(C)[C@@H](C)C(=O)N[C@@H]([C@H](OC(=O)[C@@H](NC(C)=O)[C@H](O)C(C)C)C(C)C)C(=O)N(C)[C@@H]([C@@H](C)OC)C(=O)O[C@H](C)[C@H](NC(C)=O)C(=O)O[C@H](Cc2ccccc2)C(=O)N1C` [YM, YM‐254890] (Ac-T[dPhLac][NMeDha]A[NMeA][Leu(3R-O(AcLeu(3R-OH)))][NMeT](Me); ester 1-C), the “Pseudo-Bmax ± SD” value (YM versus [³H]PSB-16254 (5 nM), 37°C, G14) is listed as 3.18 ± 0.48 pmol/mg. Moreover, the IC50 (YM versus [³H]PSB-16254 (5 nM), 37°C, G14, read-out: pIC50 ± SD (converted)) is 6.61 nM.
